The record followed here is paper PMC9532951, “Identification and characterization of a novel SNAT2 (SLC38A2) inhibitor reveals synergy with glucose transport inhibition in cancer cells” (Frontiers in Pharmacology, 2022).

The subject of the experiment is SNAT1/2. The experiment in a line: FMP assay: depolarisation by amino acid substrates in amino acid depleted HCC1806 cells. In kind it is cell-based, human. The conditions noted are these: for FMP response as substrate: 1 mM; for FMP fluorescence reading: amino acid 1 mM final. The protocol:
The FLIPR Membrane Potential Blue Explorer Kit (Molecular Devices) was used to characterise inhibitors and to optimise a high-throughput compound screen. Cells were seeded at approximately 60,000 cells/well on a 96-well plate and allowed to attach and grow overnight in a cell incubator. […] Cells were then washed once with mHBSS and incubated with 50 µl of the mHBSS-resuspended FMP assay dye and 50 µl of mHBSS (with or without inhibitors) and incubated at room temperature for 30 min. The plate was then placed in an EnSpire Multimode plate reader (PerkinElmer) and four sequential measurements of fluorescence were recorded as a baseline reference. Immediately after the baseline measurements were taken, 25 µl of 5 mM glutamine dissolved in mHBSS was injected into each well and the plate was shaken orbitally for 5 s before a series of consecutive fluorescence measurements were taken. The excitation wavelength was set to 530 nm and the emission was detected at 565 nm. […] After the assay was complete, the liquid content of the plate was carefully removed, and the cell monolayer inspected to ensure it remained intact throughout the course of the assay.

“And” between values parts separate entries of the source, which are not always exact repeats. Identical values can stand only once.

Take `O=C(O)[C@@H]1CCCN1` [Proline]: the “FMP response as substrate” value was “strongest response”. For the same molecule, the FMP fluorescence reading (t=0 s) is 59025 and 53021 and 43095. Further, the FMP fluorescence reading (t=15 s) is 104996 and 86952 and 88962. Further, the FMP fluorescence reading (t=30 s) is 110697 and 98531 and 91551. Besides, where the note is “t=45 s”, the FMP fluorescence reading is 113693 and 105110 and 94295. Further, the FMP fluorescence reading (t=60 s) was 116376 and 109453 and 95282. Moreover, the FMP fluorescence reading (t=75 s) is 118353 and 112938 and 95197. The FMP fluorescence reading (t=90 s) was 118882 and 114320 and 95021. The FMP fluorescence reading (t=105 s) is 119266 and 115087 and 95127. Further, the FMP fluorescence reading (t=120 s) was 119471 and 115780 and 93913. Further, the FMP fluorescence reading (t=135 s) was 119506 and 115226 and 93809. In addition, the FMP fluorescence reading (t=-15 s) is 58886 and 52711 and 43194. The FMP fluorescence reading (t=-30 s, replicates 1-3) was 59126 and 52759 and 43032.

With `N=C(N)NCCC[C@H](N)C(=O)O` [Arginine], the FMP fluorescence reading is, setting by setting: (t=0 s) 57601 and 55451 and 44145; (t=15 s) 59785 and 58453 and 46579; (t=30 s) 60283 and 58803 and 46849; (t=45 s) 60859 and 58896 and 47284; (t=60 s) 61207 and 59368 and 47582; (t=75 s) 60824 and 59447 and 47575. Further, the FMP fluorescence reading by setting is: (t=90 s) 61207 and 59194 and 47872; (t=105 s) 61703 and 59566 and 47735; (t=120 s) 61529 and 59552 and 47812; (t=135 s) 61459 and 60027 and 47987; (t=-15 s) 57812 and 55789 and 44423; (t=-30 s, replicates 1-3) 57675 and 55602 and 44293.

On to `CC(C)C[C@H](N)C(=O)O` [Leucine], for which the “FMP response as substrate” value is recorded as “weak signal”. Moreover, the FMP fluorescence reading (t=0 s) was 61522 and 51455 and 48802. For the same molecule, the FMP fluorescence reading (t=15 s) is 88098 and 66521 and 74458. Under “t=30 s”, the FMP fluorescence reading is 89784 and 72558 and 75976. Also, where the note is “t=45 s”, the FMP fluorescence reading is 91395 and 75844 and 77135. Moreover, the FMP fluorescence reading (t=60 s) is 92447 and 78186 and 77607. The FMP fluorescence reading (t=75 s) is 93485 and 79454 and 77906. For the same molecule, the FMP fluorescence reading (t=90 s) was 93344 and 79903 and 78344. The FMP fluorescence reading (t=105 s) is 93716 and 80571 and 78223. For the setting “t=120 s”, the FMP fluorescence reading was 93656 and 80831 and 77995. Moreover, the FMP fluorescence reading (t=135 s) is 93514 and 80690 and 77322. Moreover, the FMP fluorescence reading (t=-15 s) is 61387 and 51586 and 49166. Further, the FMP fluorescence reading (t=-30 s, replicates 1-3) was 61314 and 51367 and 48860.

Consider `N[C@@H](CCC(=O)O)C(=O)O` [Glutamate], for which the FMP fluorescence reading is 60032 and 51875 and 43598 (t=0 s); 69207 and 54669 and 51909 (t=15 s); 69328 and 57256 and 51957 (t=30 s); 69976 and 58306 and 52382 (t=45 s); 70448 and 59203 and 52416 (t=60 s); 70747 and 59679 and 52622 (t=75 s). For the same molecule, the FMP fluorescence reading is, setting by setting: (t=90 s) 70473 and 59687 and 53012; (t=105 s) 70925 and 60367 and 52735; (t=120 s) 71220 and 60249 and 53084; (t=135 s) 71259 and 60330 and 52832; (t=-15 s) 59967 and 51788 and 43666; (t=-30 s, replicates 1-3) 60239 and 51751 and 43455.

With `NC(=O)CCC(N)C(=O)O` (stereo in doubt) [D-glutamine], the FMP fluorescence reading is, setting by setting: (t=0 s) 42839 and 39003 and 33523; (t=15 s) 50034 and 45149 and 38644; (t=30 s) 50270 and 45056 and 39117; (t=45 s) 50350 and 45753 and 39233; (t=60 s) 50602 and 45748 and 39437; (t=75 s) 50996 and 45609 and 39481. Moreover, the FMP fluorescence reading (t=90 s) was 51179 and 45923 and 39430; the FMP fluorescence reading (t=105 s) was 51145 and 45682 and 40002; the FMP fluorescence reading (t=120 s) was 51340 and 46043 and 40162; the FMP fluorescence reading (t=135 s) was 51584 and 46357 and 40097; the FMP fluorescence reading (t=-15 s) is 43005 and 38805 and 33297; the FMP fluorescence reading (t=-30 s, replicates 1-3) is 42947 and 39128 and 33746.

On to `C[C@H](N)C(=O)O` [Alanine], for which the “FMP response as substrate” value is “strongest response”. Moreover, for the setting “t=0 s”, the FMP fluorescence reading was 54596 and 53457 and 39829. Also, where the note is “t=15 s”, the FMP fluorescence reading is 99809 and 107431 and 86655. Besides, the FMP fluorescence reading (t=30 s) was 104988 and 111613 and 89183. For the same molecule, the FMP fluorescence reading (t=45 s) was 107389 and 114043 and 90927. Under “t=60 s”, the FMP fluorescence reading was 109154 and 114952 and 91569. For the same molecule, the FMP fluorescence reading (t=75 s) is 110049 and 115127 and 91618. Further, for the setting “t=90 s”, the FMP fluorescence reading is 110411 and 114906 and 91021. For the same molecule, where the note is “t=105 s”, the FMP fluorescence reading was 110237 and 114204 and 90013. Moreover, the FMP fluorescence reading (t=120 s) is 109638 and 112786 and 88869. For the setting “t=135 s”, the FMP fluorescence reading is 108521 and 111868 and 87878. Also, the FMP fluorescence reading (t=-15 s) is 54286 and 53641 and 39860. Moreover, the FMP fluorescence reading (t=-30 s, replicates 1-3) was 53991 and 53679 and 39761.

For `N[C@@H](Cc1ccccc1)C(=O)O` [Phenylalanine], the “FMP response as substrate” value was “weak signal”. Where the note is “t=0 s”, the FMP fluorescence reading is 56591 and 55422 and 43224. Moreover, the FMP fluorescence reading (t=15 s) was 73580 and 72052 and 58378. The FMP fluorescence reading (t=30 s) was 74725 and 73471 and 59296. The FMP fluorescence reading (t=45 s) was 75492 and 73818 and 59645. Also, the FMP fluorescence reading (t=60 s) is 76233 and 74445 and 59921. Besides, the FMP fluorescence reading (t=75 s) was 76773 and 74969 and 60608. In addition, the FMP fluorescence reading (t=90 s) is 77388 and 75496 and 60901. Further, where the note is “t=105 s”, the FMP fluorescence reading is 77493 and 75802 and 61169. Moreover, under “t=120 s”, the FMP fluorescence reading is 77831 and 75902 and 61002. For the same molecule, under “t=135 s”, the FMP fluorescence reading was 78078 and 75738 and 60891. Besides, the FMP fluorescence reading (t=-15 s) was 56780 and 55712 and 43156. Also, under “t=-30 s, replicates 1-3”, the FMP fluorescence reading was 56746 and 55392 and 43055.

On to `NCC(=O)O` [Glycine], for which the “FMP response as substrate” value is on record as “strongest response”. For the setting “t=0 s”, the FMP fluorescence reading is 44899 and 49024 and 38114. The FMP fluorescence reading (t=15 s) was 85173 and 99097 and 84032. Under “t=30 s”, the FMP fluorescence reading is 91215 and 103676 and 87874. Besides, the FMP fluorescence reading (t=45 s) was 94947 and 105684 and 90110. For the same molecule, the FMP fluorescence reading (t=60 s) is 97113 and 106636 and 90762. For the same molecule, the FMP fluorescence reading (t=75 s) is 98961 and 107619 and 91458. The FMP fluorescence reading (t=90 s) is 100150 and 108044 and 90972. Moreover, the FMP fluorescence reading (t=105 s) is 99878 and 107571 and 90946. In addition, the FMP fluorescence reading (t=120 s) is 99987 and 106851 and 90990. Besides, the FMP fluorescence reading (t=135 s) is 99765 and 106361 and 89148. Also, where the note is “t=-15 s”, the FMP fluorescence reading was 44724 and 48839 and 38339. The FMP fluorescence reading (t=-30 s, replicates 1-3) was 44368 and 48981 and 38101.
